Read-outs that look alike come from different tables or passages of the source.
Key:
[1] = test system: Trypanosoma brucei rhodesiense (Tbr) (STIB 900 strain) trypomastigotes; assay: in vitro activity against Trypanosoma brucei rhodesiense bloodstream trypomastigotes; type: cell-based; settings: for IC50: Trypanosoma brucei, read-out: Tbr IC50; for SI (selectivity index): cytotoxicity L6 IC50 versus Tbr IC50
Procedure: (§1) The dichloromethane (CH2Cl2) extract obtained from leaves of V. cinerascens was tested for in vitro antiprotozoal activity against Trypanosoma brucei rhodesiense (Tbr) (STIB 900 strain) trypomastigotes, T. cruzi (Tcr) (Tulahuen C4 strain) amastigotes, Leishmania donovani (Ldon) (MHOM-ET-67/L82 strain) axenic amastigotes, and Plasmodium falciparum (Pf) (NF54 strain) intra-erythrocytic forms. It was also evaluated for in vitro cytotoxicity against mammalian cells, specifically the rat-skeletal myoblast cell line L6. […] Therefore, the CH2Cl2 extract was fractionated by silica gel column chromatography and representative fractions were subjected to bioactivity testing against Tbr (STIB 900 strain) trypomastigotes.
(§2) In vitro bioactivity tests were performed as previously described against Tbr (bloodstream trypomastigotes, STIB 900 strain), Tcr (amastigotes, Tulahuen C4 strain), Ldon (axenic amastigotes, MHOM-ET-67/L82 strain), and Pf (intraerythrocytic forms, NF54 strain), and the cytotoxicity test was conducted against mammalian cells (L6 cell line from rat-skeletal myoblasts) at the Swiss Tropical and Public Health Institute (Swiss TPH, Basel, Switzerland).

[2] = in vitro cytotoxicity against mammalian cells (L6); type: cell-based, rat
Procedure: as §1, §2

[3] = test system: Trypanosoma brucei rhodesiense (Tbr) (STIB 900 strain) trypomastigotes; design: method as in PMID 28397756; settings: isolated from V. lasiopus in previous study; read-out: in vitro antiTbr activity IC50; cited from earlier work
[4] = bloodstream trypomastigotes, STIB 900 strain, means of two independent determinations ± absolute deviation
[5] = L6 cell line from rat-skeletal myoblasts, means of two independent determinations ± absolute deviation, read-out: Cytotoxicity IC50

Compound | IC50 [1, 4] [µM] | SI (selectivity index) [1] | IC50 ([2]; rat) [µM] | IC50 [2, 5] [µM] | IC50 [1] [µM] | IC50 [3] [µM]
C=C[C@@]12COC(=O)C(=C)[C@@H]1[C@H]1OC(=O)C(=C)[C@@H]1[C@@H](OC(=O)C(=C)CO)C2 [Compound 2, vernodalin] | 0.16 ± 0.04 | 35 | 5.6 |  |  | 
C=C[C@@]12COC(=O)C(=C)[C@@H]1[C@H]1OC(=O)[C@@H](C)[C@@H]1[C@@H](OC(=O)C(=C)CO)C2 [Compound 3, 11β,13-dihydrovernodalin] | 1.1 ± 0.3 | 4.2 | 4.7 ± 0.4 |  |  | 
C=C(C)C(=O)OC1CC23OC2CCC(=CC2OC(=O)C(C)C21)COC3O (stereo not drawn) [Compound 4, 11β,13-dihydrovernolide] | 17 | 0.8 |  | 13 ± 2 |  | 
C=C(C)C(=O)OC1CC23OC2CCC(=CC2OC(=O)C(=C)C21)COC3O (stereo not drawn) [Compound 5, vernolide] | 0.5 ± 0.01 | 13 |  | 6.9 |  | 
C=C(CO)C(=O)OC1CC23OC2CCC(=CC2OC(=O)C(C)C21)COC3O (stereo not drawn) [Compound 6, 11β,13-dihydrohydroxyvernolide] | 15 | 3.2 | 49 ± 1 |  |  | 
C=C(CO)C(=O)OC1CC23OC2CCC(=CC2OC(=O)C(=C)C21)COC3O (stereo not drawn) [Compound 7, hydroxyvernolide] | 5 | 4.3 | 22 ± 1 |  |  | 
C=C(CO)C(=O)O[C@H]1C[C@@]2(CO)O[C@@H]2CC/C(C=O)=C/[C@H]2OC(=O)C(=C)[C@H]12 [Compound 8, vernocinerascolide] | 4.8 ± 1.1 | 27 | 128 ± 1 |  |  | 
Nc1nc(N)nc(Nc2ccc([As]3SCC(CO)S3)cc2)n1 (stereo not drawn) [melarsoprol, reference compound] |  |  |  |  | 0.003 ± 0.001 | 
COc1cc([C@@H]2c3cc4c(cc3[C@H](O)[C@H]3COC(=O)[C@H]23)OCO4)cc(OC)c1OC [podophyllotoxin, reference compound] |  |  |  | 0.007 ± 0.001 |  | 
vernodalol [Compound 1] |  |  |  |  |  | 0.26
